Laboratory results published in PubChem BioAssay (NCI).
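Where inhibition never reached the appropriate level, the endpoint shown equals the highest concentration tested. Otherwise, values were interpolated linearly from a five-concentration, 48-hour dose response in 96-well plates. GI50: concentration for 50% inhibition of growth. Definition used: TGI = concentration required for complete inhibition of growth.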 Where a SMILES comes first, the peptide text is derived from it. [ ]: non-standard residue; d: D form. The star is where a group is joined. X28 = COC1=CC(=O)N(C(=O)[C@@H](O*)C(C)C)[C@H]1Cc1ccccc1; Bn2Val = CC(C)[C@@H](C(=O)*)N(Cc1ccccc1)Cc1ccccc1; NMeV = CN[C@H](C(=O)O)C(C)C; dNMeA = CN[C@H](C)C(=O)O

Columns and labels:
Experiment in all cases: NCI tumour cell line growth inhibition, 48 h
UO-31 renal = system: UO-31 renal
OVCAR-3 ovarian = system: OVCAR-3 ovarian
LOX IMVI melanoma = system: LOX IMVI melanoma
DU-145 prostate = system: DU-145 prostate
HOP-92 NSCLC = system: HOP-92 NSCLC
HOP-62 NSCLC = system: HOP-62 NSCLC
CAKI-1 renal = system: CAKI-1 renal
OVCAR-5 ovarian = system: OVCAR-5 ovarian
HCT-15 colon = system: HCT-15 colon
NCI-H23 lung = system: NCI-H23 lung

| Structure (SMILES) | TGI (UO-31 renal) | TGI (OVCAR-3 ovarian) | TGI (LOX IMVI melanoma) | TGI (DU-145 prostate) | TGI (HOP-92 NSCLC) | TGI (HOP-62 NSCLC) | TGI (CAKI-1 renal) | TGI (OVCAR-5 ovarian) | TGI (HCT-15 colon) | TGI (NCI-H23 lung) | GI50 (UO-31 renal) | GI50 (OVCAR-3 ovarian) | GI50 (LOX IMVI melanoma) | GI50 (DU-145 prostate) | GI50 (HOP-92 NSCLC) | GI50 (HOP-62 NSCLC) | GI50 (CAKI-1 renal) | GI50 (OVCAR-5 ovarian) | GI50 (NCI-H23 lung) | GI50 (HCT-15 colon) |
| --- | --- | --- | --- | --- | --- | --- | --- | --- | --- | --- | --- | --- | --- | --- | --- | --- | --- | --- | --- | --- |
| COC1=CC(=O)N(C(=O)[C@@H](OC(=O)[C@@H](C)N(C)C(=O)[C@@H]2CCCN2C(=O)[C@H](C(C)C)N(C)C(=O)[C@@H](NC(=O)[C@H](C(C)C)N(Cc2ccccc2)Cc2ccccc2)C(C)C)C(C)C)[C@H]1Cc1ccccc1 (Bn2Val-V[NMeV]P[dNMeA]-X28) | 22.3 µM | > 100 µM | > 100 µM | > 100 µM | > 100 µM | > 100 µM | > 100 µM | > 100 µM | > 100 µM |  |  |  |  |  |  |  |  |  |  |  |
| Cn1c(=O)c2c(nc3n2CCC(=O)N3CCCCl)n(C)c1=O | > 100 µM | > 100 µM | > 100 µM | > 100 µM | > 100 µM | > 100 µM |  | > 100 µM | > 100 µM | > 100 µM |  |  |  |  |  |  |  |  |  |  |
| c1ccc(C(c2cccc3c2ccc2ccccc23)C(c2ccccc2)c2cccc3c2ccc2ccccc23)cc1 (stereo not given) | > 100 µM | > 100 µM | > 100 µM | > 100 µM | > 100 µM | > 100 µM | > 100 µM | > 100 µM | > 100 µM | > 100 µM |  |  |  |  |  |  |  |  |  |  |
| C=CCNc1nc(O)c(/C=C2\C=Nc3ncccc32)s1 | > 100 µM | 7.29 µM | > 100 µM | 21.6 µM | 6.38 µM | 5.77 µM | > 100 µM | > 100 µM | > 100 µM | 6.28 µM | 3.36 µM | 2.21 µM | 2.73 µM | 2.21 µM | 0.227 µM | 1.84 µM | 2.22 µM | 2.66 µM | 1.93 µM | 2.62 µM |
| c1ccc2[nH]c3c(N=NC4=NCCN4)c4ccccc4c-3nc2c1 |  | 30.2 µM |  | > 100 µM | 20.4 µM | 39.3 µM |  |  | 15.8 µM | 23.3 µM |  |  |  |  |  |  |  |  |  |  |
| Cc1ccc(/C(O)=C/c2nc3cccnc3[nH]c2=O)cc1 | > 100 µM | > 100 µM | > 100 µM | > 100 µM | > 100 µM | 85.9 µM | > 100 µM | > 100 µM | > 100 µM | > 100 µM |  |  |  |  |  |  |  |  |  |  |
| CCCCCCCCCCCCCCCCNCC(O)CN (stereo not given) | 25.3 µM | 6.52 µM | 3.45 µM |  | 9.36 µM | 33.4 µM | 30 µM | 19.7 µM | 4.38 µM | 16.8 µM |  |  |  |  |  |  |  |  |  |  |
| Cn1cc(-c2nc(-c3c[nH]c4ccncc34)cs2)c2ccccc21 | 2.69 µM | 3.09 µM |  | 3.15 µM |  |  | 2.85 µM | 3.18 µM | 2.81 µM |  | 1.38 µM | 1.69 µM |  | 1.74 µM |  |  | 1.48 µM | 1.76 µM |  | 1.37 µM |
| Nc1ncnc2c1ncn2CCCC(c1ccccc1)P(=O)(O)O (stereo not given) | > 100 µM | > 100 µM | > 100 µM |  |  |  | 30.7 µM | > 100 µM | > 100 µM | > 100 µM |  |  |  |  |  |  |  |  |  |  |
| Cc1ccc2n(c1)cc(-c1ccc(/C=N/NC(=N)N/N=C/c3ccc(-c4cn5cc(C)ccc5[n+]4C)cc3)cc1)[n+]2C | 44.1 µM |  |  |  |  | > 100 µM |  | > 100 µM | > 100 µM |  |  |  |  |  |  |  |  |  |  |  |
| C=C1C2C[C@@H]3OC4CC5O[C@]6(CC5OC4C(C)C3OC(=O)CC3CC[C@@H]4OC5C7OC8C[C@](CCC9CC(=C)[C@H](CCC(C[C@H]1C)O2)O9)(OC7C4O3)O[C@@H]85)C[C@@H]1O[C@@]2(CC(C)[C@@H]3OC(CC(=O)CCO)C(O)C[C@@H]3O2)CC(C)[C@@H]1O6 (stereo not given in full) | 1.17 µM | < 0.001 µM | 0.119 µM |  | 0.0017 µM | 0.0034 µM | 0.877 µM | 0.562 µM | 0.00109 µM | < 0.001 µM |  |  |  |  |  |  |  |  |  |  |
| CC(=O)Oc1c2c(c(OC(C)=O)c3c1n(C(C)=O)c1ccccc1n3C(C)=O)n(C(C)=O)c1ccccc1n2C(C)=O | 25.2 µM | 5.68 µM | 24.6 µM |  |  | 53.5 µM | 55.1 µM |  | 13 µM | 25.7 µM |  |  |  |  |  |  |  |  |  |  |
| C[N+](C)(C)CCOC(=O)/C=C/c1cnc[nH]1 | > 500 µM | > 500 µM | > 500 µM |  | > 500 µM | > 500 µM | > 500 µM | > 500 µM | > 500 µM | > 500 µM |  |  |  |  |  |  |  |  |  |  |
| O=C1C(C(c2ccc([N+](=O)[O-])cc2)N2CCOCC2)=C(O)C(c2ccccc2)N1c1ccccc1 (stereo not given) | > 10 µM | > 10 µM | > 10 µM | > 10 µM |  | > 10 µM | > 10 µM | > 10 µM | > 10 µM | > 10 µM |  |  |  |  |  |  |  |  |  |  |
| N=c1n(CC(=O)NC23CC4CC(CC(C4)C2)C3)c2ccccc2n1CC(=O)NC12CC3CC(CC(C3)C1)C2 | 26 µM | 3.32 µM |  |  | 3.06 µM | 3.48 µM | 24.3 µM | 3.08 µM | 3.31 µM | 3.13 µM |  |  |  |  |  |  |  |  |  |  |
| C[N+](C)=c1ccc2nc3c(ccc4ccccc43)oc-2c1 | 31.5 µM | 14 µM | 15.4 µM |  | 32.7 µM | 34.2 µM | 28.9 µM | 37 µM | 34.6 µM | 27.2 µM |  |  |  |  |  |  |  |  |  |  |
| CCOC(=O)CCC(NC(=O)c1ccc(Nc2nc3cc(C(F)(F)F)ccc3nc2C(=O)OCC)cc1)C(=O)OCC (stereo not given) | 24.6 µM | 26.7 µM | 36.2 µM | > 100 µM | 9.95 µM | 27 µM |  | 39.5 µM | > 100 µM | 39.9 µM |  |  |  |  |  |  |  |  |  |  |
| Nc1ncnc2c1sc(=S)n2-c1ccccc1 | > 100 µM | > 100 µM | > 100 µM |  | > 100 µM | > 100 µM | > 100 µM | > 100 µM | > 100 µM | > 100 µM |  |  |  |  |  |  |  |  |  |  |
| CC(C)(C)c1ccc(O)c(C(c2ccc([N+](=O)[O-])cc2)c2cc(C(C)(C)C)ccc2O)c1 | 3.52 µM | 3.25 µM |  | 6.14 µM | 3.7 µM | 3.39 µM | 2.88 µM | 3.25 µM | 4.27 µM | 4.23 µM |  |  |  |  |  |  |  |  |  |  |
| C/C=C/c1cc2c(c(=O)o1)C(=O)[C@@H](O)[C@H](C)O2 | 37.2 µM | 32.8 µM | 26.4 µM |  | 31.2 µM | 60.8 µM | 31.3 µM | 31.1 µM | 25.9 µM | 32.4 µM |  |  |  |  |  |  |  |  |  |  |
| N#CNC(=NCc1ccccc1)NCCc1c[nH]c2ccccc12 | 86.2 µM | > 100 µM | > 100 µM |  |  | > 100 µM |  | > 100 µM | > 100 µM | > 100 µM |  |  |  |  |  |  |  |  |  |  |
